Assay results published in US20260136597A1, “PHARMACEUTICAL COMPOSITION FOR PREVENTING OR TREATING A PERIODONTAL DISEASE OR DISLOCATED TRAUMATIC TOOTH” (HYSENSBIO Co., Ltd., priority 2020, published 2026).

Assays:
PERIOSTIN = experiment: Real-time PCR, periostin gene expression in human periodontal ligament cells; format: cell-based; conditions: hPDL cells, average of three experiments
Text: Periostin is a protein first discovered in a periodontal ligament and periosteum of a bone, and periostin is expressed in the periodontal ligament and mesenchymal of the developing tooth and is known to be involved in cell adhesion. According to several recent studies, periostin is an important regulator of periodontium formation, promotes collagen fiber production and migration of fibroblast and osteoblast, and it is known to play a pivotal role in the regeneration of periodontal ligament and alveolar bone after periodontal surgery to treat periodontal disease. Therefore, the effect of a peptide of Example 1 on the expression of periostin which is a marker gene for a periodontal ligament differentiation, and the type 3 collagen fiber gene (COL3) was confirmed.

CAP = conditions: hPDL cells; real-time PCR; average of three experiments
Method: Human periodontal ligament cells (hPDL cells) were isolated from periodontal ligament tissues from the wisdom teeth of 10 adults (18-22 years old) at Seoul National University Dental Hospital. Specifically, all experiments were performed with the consent of the patient after obtaining approval from the Hospital's Institutional Review Board, a periodontal ligament tissue attached to the root of a wisdom tooth was isolated and cut into double-sided pieces, placed in a 60 mm dish, and covered with a cover slip, and then cultured in Dulbecco's […] Eagle's Medium.
Total RNA from human periodontal ligament cells was isolated using a TRIzol reagent. cDNA was synthesized using 2 μg of total RNA, 1 μl of reverse transcriptase, and 0.5 μg of oligo (dT). cDNA of synthesized human periodontal ligament cells was used for a real-time polymerase chain reaction using primers shown in Table 2 below. A real-time polymerase chain reaction was performed in ABI PRISM 7500 sequence detection system (Applied Biosystems) using SYBR GREEN PCR Master Mix (Takara, Japan). The real-time polymerase chain reaction was performed at 94° C., 1 min; 95° C., 15 sec-60° C., 34 sec was performed under the condition of repeating 40 cycles. Results were analyzed using a comparative cycle threshold (CT) method.
Bone sialoprotein (BSP) and dentin matrix protein 1 (DMP1) genes are used as markers for the differentiation of osteoblast and cementoblast and are known as important genes for the calcification of a bone and cementum. In addition, a CAP (cementum attachment protein) gene is expressed in differentiated cementoblast and is known as a gene involved in the cementum attachment of a periodontal ligament fiber bundle.

BSP = experiment: Real-time PCR, BSP gene expression in human periodontal ligament cells; format: cell-based; conditions: hPDL cells, average of three experiments
Method: Human periodontal ligament cells (hPDL cells) were isolated from periodontal ligament tissues from the wisdom teeth of 10 adults (18-22 years old) at Seoul National University Dental Hospital. Specifically, all experiments were performed with the consent of the patient after obtaining approval from the Hospital's Institutional Review Board, a periodontal ligament tissue attached to the root of a wisdom tooth was isolated and cut into double-sided pieces, placed in a 60 mm dish, and covered with a cover slip, and then cultured in Dulbecco's degenerated Eagle's Medium.

[1] = system: three-wall periodontal defect; experiment: Periodontium regeneration in periodontium damage animal model, histological evaluation; format: in vivo, beagle dogs; conditions: beagle dog, 3 months
Method: Four beagle dogs (12-16 kg; […]) were anesthetized by inhalation of Geloran, intravenously injected with Zoletil (5 mg/kg) and Xylazine (0.2-0.5 mg/kg), and then treated with Lidocaine (Lidocaine 2% with 1:80,000 epinephrine). The 4th premolar tooth and the 2nd molar tooth were extracted from the mandible of the beagle dog, and then the dog waited for healing for 3 months. After 3 months of healing, three-wall periodontal defect was induced on distal and mesial surfaces of a 1st molar tooth. Then, a periodontal damage of 4×4×4 mm was formed with the buccal and distal bones remaining around the tooth root, the root alveolar bone is securely removed, tooth root planing was performed using a curette, and then an incisor groove was formed using a ½ round bur. Next, an experimental group was transplanted with a collagen sponge (a peptide solution obtained by dissolving a peptide in physiological saline at a concentration of 1 μg/μl was prepared, 50 μl of a peptide solution was added to the EP tube, and then was soaked for 5 minutes to prepare the collagen sponge) including a 50 μl of peptide (SEQ ID NO: 16 of group 2) prepared in Example 1 at a defect region, After the defect, only a negative control (NC) without any treatment and a collagen sponge (prepared by soaking a collagen sponge in 50 μl of physiological saline for 5 minutes) was placed on the inner bone wall of a bone defect and a transplanted negative control (NC+Plug) was sacrificed 3 months later, and histological evaluation was performed. After 3 months, a beagle dog was sacrificed by administering an excessive amount (90-120 mg/kg) of pentobarbital. A tooth of the beagle dog was extracted, fixed with 10% formalin, and then calcium was removed by adding 5% formic acid, molded, and embedded in paraffin, to obtain a tissue section with a thickness of 5 μm. The obtained tissue section was stained with hematoxylin and eosin or collagen stained (Masson's Trichrome Staining) to confirm periodontal ligament regeneration and then analyzed using by an optical microscope equipped with a digital camera (LEICA ICC50 camera, Germany). After extraction of a 4th premolar tooth and a 2nd molar tooth from the mandibles of 4 beagle dogs, they waited for 3 months to heal, and After 3 months of healing, the 3-mural periodontal defect was induced in distal and mesial surfaces of a 1st molar tooth. Then, periodontium damage of 4×4×4 mm was formed with the buccal and distal bones remaining around the tooth root, the root alveolar bone is securely removed, tooth root planing was performed using a curette, and then an incisor groove was formed. Next, the experimental group transplanted a collagen sponge containing 50 μg of the peptide (SEQ ID NO: 16) of Example 1 to the defect region, and after the defect, a negative control (NC) without any treatment and control (NC+Plug) transplanted by placing only a collagen sponge on the inner bone wall of the bone defect was sacrificed 3 months later for histological evaluation.

[2] = collagen sponge with 50 μg peptide, Masson's trichrome stain, FIG. 6
[3] = collagen sponge with 50 μg peptide, hematoxylin/eosin, FIG. 5

Sequence	PERIOSTIN gene expression, relative mRNA expression level compared to the control (Average) (PERIOSTIN)	CAP gene expression, relative mRNA expression level compared to the control (Average) (CAP)	BSP gene expression, relative mRNA expression level compared to the control (Average) (BSP)	also measured
KYKQKRKNYK [SEQ ID NO 6]	2.705	2.705	2.705	–
KYKQKKKNYK [SEQ ID NO 5]	2.67	2.67	2.67	–
KYKQRRKSYK [SEQ ID NO 11]	2.362	2.362	2.362	–
KYKQRRRSYK [SEQ ID NO 12]	2.211	2.211	2.211	–
KYKQKRRNYK [SEQ ID NO 8]	2.021	2.021	2.021	–
KYKQRKKNYK [SEQ ID NO 1]	2.092	2.092	2.092	–
KYKQKKRSYK [SEQ ID NO 15]	2.620	2.620	2.620	–
KYKQRKKSYK [SEQ ID NO 9]	2.211	2.211	2.211	–
KYKQRKRNYK [SEQ ID NO 2]	2.361	2.361	2.361	–
KYKQRRKNYK [SEQ ID NO 3]	2.572	2.572	2.572	–
KYKQRRRNYK [SEQ ID NO 4]	2.702	2.702	2.702	–
KYKQRKRSYK [SEQ ID NO 10]	2.811	2.811	2.811	–
KYKQKKKSYK [SEQ ID NO 13]	2.525	2.525	2.525	–
KYKQKRRSYK [SEQ ID NO 16, Group 2 peptide, 8th amino acid serine (S)]	2.403	2.467	2.606	Alveolar bone regeneration ([1]; collagen sponge with 50 μg peptide at defect, hematoxylin/eosin, FIG. 4): alveolar bone was regenerated in most of the damage periodontium; Incorporation of new periodontal ligament fiber bundle into alveolar bone and cementum [1, 2]: A new periodontal ligament fiber bundle was vertically incorporated in the newly formed alveolar bone and cementum; New cementum-like tissue formation [1, 2]: new cementum-like tissue was observed along a tooth root surface; New periodontal ligament-like tissue formation [1, 2]: new periodontal ligament-like tissue formation was also observed; Incorporation of new periodontal ligament into alveolar bone and cementum [1, 3]: New periodontal ligament was incorporated in the newly formed alveolar bone and cementum; New cementum-like tissue formation [1, 3]: new cementum-like tissue was observed along a tooth root surface; New periodontal ligament-like tissue formation [1, 3]: new periodontal ligament-like tissue formation was also observed
KYKQKKRNYK [SEQ ID NO 7, Group 1 peptide, 8th amino acid asparagine (N)]	2.329	2.451	2.215	–
KYKQKRKSYK [SEQ ID NO 14]	2.836	2.836	2.836	–
